Assay [1] concerns the target T1, α4β3γ2 GABAA/BzR (Homo sapiens, UniProt P18507+P48169).
T1 construct: expressed in transfected cells; host or cells: LTK cells (given for XLi-093 only)
Nature of the assay: biochemical. In kind it is binding.

The target in assay [2] is α1β3γ2 GABAA/BzR (Homo sapiens, UniProt P14867+P18507). Put plainly: Competition binding to HEK cell membranes, α1β3γ2. Also noted: expressed in transfected cells.
Assay [3] concerns the target α2β3γ2 GABAA/BzR (Homo sapiens, UniProt P18507+P47869). Nature of the assay: Competition binding to HEK cell membranes, α2β3γ2. Also noted: expressed in transfected cells.
Assay [4] deals with α3β3γ2 GABAA/BzR (Homo sapiens, UniProt P18507+P34903). Put plainly: Competition binding to HEK cell membranes, α3β3γ2. Also noted: expressed in transfected cells.
Assay [5] concerns the target α5β3γ2 GABAA/BzR (Homo sapiens, UniProt P18507+P31644). Put plainly: Competition binding to HEK cell membranes, α5β3γ2. Also noted: expressed in transfected cells.
In assay [6] the target is α6β3γ2 GABAA/BzR (Homo sapiens, UniProt P18507+Q16445). Nature of the assay: Competition binding to HEK cell membranes, α6β3γ2. Also noted: expressed in transfected cells.

“And” between values parts separate entries of the source, which are not always exact repeats. Identical values can stand only once. Like-named read-outs stand apart in the source and are kept apart here.

The term Ki denotes the equilibrium dissociation constant of an inhibitor or competing ligand from its target. With `CCOC(=O)c1ncn2c1C1CCN1C(=O)c1cc(OC)ccc1-2` (stereo not shown) [CM-D44], the Ki in assay [1] (read-out: Ki α4) is 0.33 nM; in assay [2] (read-out: Ki α1), 34.3 nM; in assay [3] (read-out: Ki α2), 56.3 nM; in assay [4] (read-out: Ki α3), 20.7 nM; in assay [5] (read-out: Ki α5), 0.57 nM; in assay [6] (read-out: Ki α6), 0.92 nM.
As to `C#Cc1ccc2c(c1)C(c1ccccc1)=NCc1c(C(=O)OCCCOC(=O)c3ncn4c3CN=C(c3ccccc3)c3cc(C#C)ccc3-4)ncn1-2` [compound 63, 1,3-Bis(8-acetylenyl-6-phenyl-4H-benzo[f]imidazo[1,5-a][1,4]diazepine-3-carboxy) propyl diester], the Ki was determined as 5000 nM in assay [1]; 236 nM in assay [2] (Ki α1); 7.4 nM in assay [3] (Ki α2); 272 nM in assay [4] (Ki α3); 194 nM in assay [5] (Ki α5); 5000 nM in assay [6] (Ki α6).
Turning to `O=C(OC(C(F)(F)F)C(F)(F)F)c1ncn2c1C1CCCN1C(=O)c1ccccc1-2` (stereo not shown) [MMB-III-018], the Ki in assay [1] (read-out: Ki α4) worked out at 3500 nM; in assay [2] (read-out: Ki α1), 117 nM; in assay [3] (read-out: Ki α2), 140 nM; in assay [4] (read-out: Ki α3), 78 nM; in assay [5] (read-out: Ki α5), 14 nM; in assay [6] (read-out: Ki α6), 976 nM.
`CC(OC(=O)c1ncn2c1C1CCCN1C(=O)c1ccccc1-2)C(F)(F)F` (stereo not shown) [MMB-III-14]: the Ki in assay [1] (read-out: Ki α4) came to 333 nM; in assay [2] (read-out: Ki α1), 13 nM; in assay [3] (read-out: Ki α2), 13 nM; in assay [4] (read-out: Ki α3) it was 6.9 nM; in assay [5] (read-out: Ki α5), 1.1 nM; in assay [6] (read-out: Ki α6) it was 333 nM.
With `CCC(C)OC(=O)c1ncn2c1C1CCCN1C(=O)c1cc(F)ccc1-2` (stereo not shown) [CM-B44], the Ki in assay [1] (read-out: Ki α4) turned out to be 379 nM; in assay [2] (read-out: Ki α1) it was 32 nM; in assay [3] (read-out: Ki α2), 43 nM; in assay [4] (read-out: Ki α3), 12 nM; in assay [5] (read-out: Ki α5), 4.3 nM; in assay [6] (read-out: Ki α6), 485 nM.
Take `CCOC(=O)c1cc2c(cn1)[nH]c1ccc(I)cc12` [CM-B01]: the Ki stood at 1000 nM in assay [1] (read-out: Ki α4); 4.8 nM in assay [2] (read-out: Ki α1); 31 nM in assay [3] (read-out: Ki α2); 34 nM in assay [4] (read-out: Ki α3); 286 nM in assay [5] (read-out: Ki α5); 1000 nM in assay [6] (read-out: Ki α6).
Take `CCC(OC(=O)c1ncn2c1C1CCCN1C(=O)c1cc(F)ccc1-2)C(F)(F)F` (mixture of isomers) [CM-B47]: the inhibition constant Ki was 2010 nM in assay [1] (read-out: Ki α4); 32 nM in assay [2] (read-out: Ki α1); 63 nM in assay [3] (read-out: Ki α2); 34 nM in assay [4] (read-out: Ki α3); 4.4 nM in assay [5] (read-out: Ki α5); 717 nM in assay [6] (read-out: Ki α6).
Consider `CCC(OC(=O)c1ncn2c1C1CCCN1C(=O)c1cc(Br)ccc1-2)C(F)(F)F` (mixture of isomers) [CM-B34], for which the Ki in assay [1] (read-out: Ki α4) is 114 nM; in assay [2] (read-out: Ki α1), 472 nM; in assay [3] (read-out: Ki α2), 451 nM; in assay [4] (read-out: Ki α3), 223 nM; in assay [5] (read-out: Ki α5) it was 17 nM; in assay [6] (read-out: Ki α6), 175 nM.
For the molecule `COc1ccc2c(c1)C(=O)N1CCCC1c1c(C(=O)OCC(C)C)ncn1-2` (stereo not shown) [CM-E11], the Ki was 394 nM in assay [1] (read-out: Ki α4); 333 nM in assay [2] (read-out: Ki α1); 308 nM in assay [3] (read-out: Ki α2); 161 nM in assay [4] (read-out: Ki α3); 14 nM in assay [5] (read-out: Ki α5); 750 nM in assay [6] (read-out: Ki α6).
As for `COc1ccc2c(c1)C(=O)N1CC[C@H]1c1c(C(=O)OC(C)(C)C)ncn1-2` [CM-D45], the Ki was 0.15 nM in assay [1] (read-out: Ki α4); 90.5 nM in assay [2] (read-out: Ki α1); 65.5 nM in assay [3] (read-out: Ki α2); 30.3 nM in assay [4] (read-out: Ki α3); 1.65 nM in assay [5] (read-out: Ki α5); 0.23 nM in assay [6] (read-out: Ki α6).
In the case of `COc1ccc2c(c1)C(=O)N1CCCC1c1c(C(=O)OC(C)C)ncn1-2` (stereo not shown) [CM-E09b], the inhibition constant Ki stood at 55 nM in assay [1] (read-out: Ki α4); 20 nM in assay [2] (read-out: Ki α1); 22 nM in assay [3] (read-out: Ki α2); 19 nM in assay [4] (read-out: Ki α3); 0.45 nM in assay [5] (read-out: Ki α5); 69 nM in assay [6] (read-out: Ki α6).
Regarding `Fc1ccc2c(c1)[nH]c1c2ncc2[nH]c3ccccc3c21` [MLT-II-16], the Ki in assay [2] (read-out: Ki α1) stood at 5.05 nM; in assay [3] (read-out: Ki α2) it was 10.4 nM; in assay [4] (read-out: Ki α3), 18.4 nM; in assay [5] (read-out: Ki α5), 260 nM; in assay [6] (read-out: Ki α6), 10000 nM.
Turning to `C#Cc1ccc2c(c1)C(=O)N1CCC1c1c(-c3ocnc3C(=O)OCC)ncn1-2` (stereo not shown) [RY-069 (13)], the Ki was 692 nM in assay [2] (Figure 5, read-out: Ki α1); 622 nM in assay [3] (Figure 5, read-out: Ki α2); 506 nM in assay [4] (Figure 5, read-out: Ki α3); 19 nM in assay [5] (Figure 5, read-out: Ki α5); > 1000 nM in assay [6] (Figure 5, read-out: Ki α6).
Take `CC(C)(C)OC(=O)c1ncn2c1[C@@H]1CCCN1C(=O)c1cc(-c3ccco3)ccc1-2` [JYI-06]: the inhibitory constant (Ki) in assay [2] (read-out: Ki α1) was found to be 16.5 nM; in assay [3] (read-out: Ki α2) it was 5.48 nM; in assay [4] (read-out: Ki α3), 5000 nM; in assay [5] (read-out: Ki α5), 12.6 nM; in assay [6] (read-out: Ki α6), 5000 nM.
For the molecule `CCOC(=O)c1ncoc1-c1ncn2c1C1CCN1C(=O)c1cc(Br)ccc1-2` (stereo not shown) [RY-062 (12)], the Ki is > 1000 nM in assay [2] (Figure 5, read-out: Ki α1); > 1000 nM in assay [3] (Figure 5, read-out: Ki α2); > 500 nM in assay [4] (Figure 5, read-out: Ki α3); 172 nM in assay [5] (Figure 5, read-out: Ki α5); > 2000 nM in assay [6] (Figure 5, read-out: Ki α6).
Turning to `c1ccc2c(c1)[nH]c1c2ncc2[nH]c3ccccc3c21` [MLT-I-70], the Ki was 1.1 nM in assay [2] (read-out: Ki α1); 1.2 nM in assay [3] (read-out: Ki α2); 1.1 nM in assay [4] (read-out: Ki α3); 40.3 nM in assay [5] (read-out: Ki α5); 1000 nM in assay [6] (read-out: Ki α6).
Regarding `C#Cc1ccc2c(c1)C(c1ccccc1F)=NCc1c(C(=O)OCC(F)(F)F)ncn1-2` [JYI-59], the inhibitory constant (Ki) in assay [2] (read-out: Ki α1) amounted to 1.08 nM; in assay [3] (read-out: Ki α2), 2.6 nM; in assay [4] (read-out: Ki α3) it was 11.8 nM; in assay [5] (read-out: Ki α5), 11.5 nM; in assay [6] (read-out: Ki α6), 5000 nM.
Consider `O=C(OC(C(F)(F)F)C(F)(F)F)c1ncn2c1C1CCCN1C(=O)c1ccccc1-2` (stereo not shown) [MMB-III-18], for which the inhibitory constant (Ki) was 3500 nM in assay [1] (read-out: Ki α4), 140 nM in assay [3] (read-out: Ki α2), 78 nM in assay [4] (read-out: Ki α3) and 14 nM in assay [5] (read-out: Ki α5).
On to `CCCCc1cc2c(cn1)[nH]c1ccc(F)cc12` [CM-A58], for which the Ki came to 16 nM in assay [2] (read-out: Ki α1); 120 nM in assay [3] (read-out: Ki α2); 184 nM in assay [4] (read-out: Ki α3); 1000 nM in assay [5] (read-out: Ki α5); 1010 nM in assay [6] (read-out: Ki α6).
The like results for `Oc1ccc2c(c1)[nH]c1c2ncc2[nH]c3ccccc3c21` [MLT-II-34] were, in that order, 7.04 nM, 15.9 nM, 22.3 nM, 158 nM and 1000 nM.
In the case of `O=C1C2C=Nc3ccccc3C2=NN1c1ccccc1` (stereo not shown) [QH-II-090 (CGS-8216), reference compound], the Ki in assay [2] (Ki α1) was 0.13 nM and 0.05 nM; in assay [3] (Ki α2) it was 0.08 nM; in assay [4] (Ki α3), 0.12 nM; in assay [5] (Ki α5), 0.25 nM; in assay [6] (Ki α6) it was 46 nM and 17 nM.
On to `CCCC(=O)c1cc2c(cn1)[nH]c1ccccc12` [MSA-IV-35], for which the Ki in assay [2] (read-out: Ki α1) is 2.1 nM; in assay [3] (read-out: Ki α2), 16 nM; in assay [4] (read-out: Ki α3) it was 21 nM; in assay [5] (read-out: Ki α5) it was 995 nM; in assay [6] (read-out: Ki α6) it was 3000 nM.
Consider `CC[C@H](C)OC(=O)c1ncn2c1[C@@H]1CCCN1C(=O)c1cc(I)ccc1-2` [CM-B31i (ss)], for which the Ki came out at 18 nM in assay [1] (read-out: Ki α4); 90 nM in assay [2] (read-out: Ki α1); 184 nM in assay [3] (read-out: Ki α2); 78 nM in assay [4] (read-out: Ki α3); 4.9 nM in assay [5] (read-out: Ki α5).
With `O=C(OCC(F)(F)F)c1ncn2c1CN=C(c1ccccc1)c1ccccc1-2` [DM-II-30], the Ki in assay [2] (read-out: Ki α1) was 17.6 nM; in assay [3] (read-out: Ki α2) it was 13.4 nM; in assay [4] (read-out: Ki α3), 28.5 nM; in assay [5] (read-out: Ki α5), 7.8 nM; in assay [6] (read-out: Ki α6), 5000 nM.

These data come from paper PMC4657098, “A Review of the Updated Pharmacophore for the Alpha 5 GABA(A) Benzodiazepine Receptor Model” (International Journal of Medicinal Chemistry, 2015).
